Reference: patent publication US10052320B2, “Substituted quinoxalines as FGFR kinase inhibitors” (ASTEX THERAPEUTICS LIMITED, priority 2011, dated 2018)

Key:
[1] = biological target: FGFR4 (h) (Homo sapiens, UniProt P22455); test: FGFR4 (enzymatic assay), TR-FRET; type: biochemical; conditions: read-out: FGFR 4 pIC50 (converted)
Procedure: In a final reaction volume of 30 μL, FGFR4 (h) (60 ng/ml) was incubated with 50 mM HEPES pH 7.5, 6 mM MnCl2, 1 mM DTT, 0.1 mM Na3VO4, 0.01% Triton-X-100, 500 nM Btn-Flt3 and 5 μM ATP in the presence of compound (1% DMSO final). […] Time-Resolved Fluorescence Resonance Energy Transfer (TR-FRET) signal (ex340 nm. Em 620 nm, em 655 nm) was measured afterwards and results are expressed in RFU (Relative Fluorescence Units).

[2] = biological target: Ba/F3-FGFR3-transfected cells (Homo sapiens, UniProt P22607); test: Ba/F3-FGFR3 (minus IL3) cellular proliferation assay, Alamar Blue; type: cell-based; conditions: minus IL3, 384 well
Chain of Ba/F3-FGFR3-transfected cells (P22607 whole entry, change not shown): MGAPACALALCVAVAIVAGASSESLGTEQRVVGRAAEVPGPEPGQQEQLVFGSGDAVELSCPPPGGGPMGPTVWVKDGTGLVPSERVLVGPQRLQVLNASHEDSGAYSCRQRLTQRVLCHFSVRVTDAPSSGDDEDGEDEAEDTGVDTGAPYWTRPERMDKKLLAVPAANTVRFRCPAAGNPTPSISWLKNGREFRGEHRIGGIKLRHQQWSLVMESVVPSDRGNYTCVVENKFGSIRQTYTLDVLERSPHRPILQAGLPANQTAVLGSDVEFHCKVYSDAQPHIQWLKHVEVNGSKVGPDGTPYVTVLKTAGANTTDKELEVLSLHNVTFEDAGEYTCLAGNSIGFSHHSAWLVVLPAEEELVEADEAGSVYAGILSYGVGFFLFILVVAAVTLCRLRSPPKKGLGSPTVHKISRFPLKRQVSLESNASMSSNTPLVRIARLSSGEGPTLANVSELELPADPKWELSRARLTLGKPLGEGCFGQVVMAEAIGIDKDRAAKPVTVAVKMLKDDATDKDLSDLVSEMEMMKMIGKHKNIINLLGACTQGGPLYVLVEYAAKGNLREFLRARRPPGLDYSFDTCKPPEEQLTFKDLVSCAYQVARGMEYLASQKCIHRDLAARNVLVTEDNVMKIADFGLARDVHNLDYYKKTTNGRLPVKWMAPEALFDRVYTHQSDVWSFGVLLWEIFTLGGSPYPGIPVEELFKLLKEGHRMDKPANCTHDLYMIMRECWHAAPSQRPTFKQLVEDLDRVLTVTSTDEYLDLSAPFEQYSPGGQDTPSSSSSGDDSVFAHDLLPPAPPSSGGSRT
Procedure: (§1) Ba/F3-FGFR3 (Minus IL3 or Plus IL3) (Cellular Proliferation Assay)
Cells were put in an incubator at 37° C. and 5% CO2. After 24 hours, 10 μl of Alamar Blue solution (0.5 mM K3Fe(CN)6, 0.5 mM KaFe(CN)6, 0.15 mM Resazurin and 100 mM Phosphate Buffer) was added to the wells, incubated for 4 hours at 37° C. and 5% CO2 before RFU's (Relative Fluorescence Units) (ex. 540 nm., em. 590 nm.) were measured in a flurorescence plate reader. […]
(§2) In a 96 well plate, 180 μl cell culture medium (phenol red free RPMI-1640, 10% FBS, 2 mM L-Glutamine and 50 μg/ml Gentamycin) containing 10000 cells per well of Ba/F3-FGFR3-transfected cells were pipette and 20 μl of compound dilution in DMSO was added. Cells were put in an incubator at 37° C. and 5% CO2. After 24 hours, 40 μl of Alamar Blue solution (0.5 mM K3Fe(CN)6, 0.5 mM KaFe(CN)6, 0.15 mM Resazurin and 100 mM Phosphate Buffer) was added to the wells, incubated for 4 hours at 37° C. and 5% CO2 before RFU's (Relative Fluorescence Units) (ex. 540 nm., em. 590 nm.) were measured in a flurorescence plate reader.

[3] = tested on: Ba/F3-FGFR3-transfected cells in the presence of 10 ng/ml murine IL3; test: Ba/F3-FGFR3 (plus IL3) cellular proliferation counterscreen, Alamar Blue; type: cell-based; conditions: plus 10 ng/ml murine IL3, 384 well; for IC50: Mus musculus, read-out: BAF3-FGFR 3 (PLUS IL3) 384 well pIC50 (converted)
Procedure: as §1
as §2, with “a 384” for “a 96”, “plate, 100 nl of compound dilution in DMSO was sprayed before adding 50” for “plate, 180”, “containing 20000” for “containing 10000”, “Ba/F3-FGFR3-transfected cells.” for “Ba/F3-FGFR3-transfected cells were pipette and 20 μl of compound dilution in DMSO was added.”, “hours, 10” for “hours, 40”
As a counterscreen the same experiment was performed in the presence of 10 ng/ml murine IL3.
as §2

[4] = biological target: T1, Ba/F3-Flt3-transfected cells (Homo sapiens, UniProt P36888, cells depend on it, form not given); test: Ba/F3-Flt3 (minus IL3) cellular proliferation assay, Alamar Blue; type: cell-based; conditions: minus IL3
T1 sequence (P36888 1-993): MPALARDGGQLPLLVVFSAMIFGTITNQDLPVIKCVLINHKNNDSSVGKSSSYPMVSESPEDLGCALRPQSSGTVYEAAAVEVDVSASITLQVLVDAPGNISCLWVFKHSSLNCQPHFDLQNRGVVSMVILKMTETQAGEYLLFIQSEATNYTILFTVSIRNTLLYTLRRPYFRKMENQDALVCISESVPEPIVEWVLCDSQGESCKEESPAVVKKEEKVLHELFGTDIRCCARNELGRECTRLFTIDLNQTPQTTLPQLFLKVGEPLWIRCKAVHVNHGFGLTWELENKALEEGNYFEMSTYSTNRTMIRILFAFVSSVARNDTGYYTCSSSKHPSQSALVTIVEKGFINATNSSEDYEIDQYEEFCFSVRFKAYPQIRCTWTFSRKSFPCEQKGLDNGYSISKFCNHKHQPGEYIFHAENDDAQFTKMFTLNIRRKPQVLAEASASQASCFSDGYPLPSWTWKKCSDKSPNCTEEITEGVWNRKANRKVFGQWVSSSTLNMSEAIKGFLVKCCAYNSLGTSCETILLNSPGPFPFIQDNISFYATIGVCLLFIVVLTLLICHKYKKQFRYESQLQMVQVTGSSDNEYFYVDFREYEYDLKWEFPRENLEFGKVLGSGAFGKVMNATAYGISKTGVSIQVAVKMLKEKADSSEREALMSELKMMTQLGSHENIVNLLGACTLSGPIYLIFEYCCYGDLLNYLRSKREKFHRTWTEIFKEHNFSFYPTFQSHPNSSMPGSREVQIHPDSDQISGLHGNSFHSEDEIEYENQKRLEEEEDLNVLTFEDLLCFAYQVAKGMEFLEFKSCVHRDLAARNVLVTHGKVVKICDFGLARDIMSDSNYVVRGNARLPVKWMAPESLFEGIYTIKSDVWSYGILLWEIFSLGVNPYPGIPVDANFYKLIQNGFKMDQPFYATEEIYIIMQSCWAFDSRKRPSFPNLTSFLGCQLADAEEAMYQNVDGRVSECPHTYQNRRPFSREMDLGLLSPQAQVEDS

Chain of FGFR4 (h) (P22455 22-802): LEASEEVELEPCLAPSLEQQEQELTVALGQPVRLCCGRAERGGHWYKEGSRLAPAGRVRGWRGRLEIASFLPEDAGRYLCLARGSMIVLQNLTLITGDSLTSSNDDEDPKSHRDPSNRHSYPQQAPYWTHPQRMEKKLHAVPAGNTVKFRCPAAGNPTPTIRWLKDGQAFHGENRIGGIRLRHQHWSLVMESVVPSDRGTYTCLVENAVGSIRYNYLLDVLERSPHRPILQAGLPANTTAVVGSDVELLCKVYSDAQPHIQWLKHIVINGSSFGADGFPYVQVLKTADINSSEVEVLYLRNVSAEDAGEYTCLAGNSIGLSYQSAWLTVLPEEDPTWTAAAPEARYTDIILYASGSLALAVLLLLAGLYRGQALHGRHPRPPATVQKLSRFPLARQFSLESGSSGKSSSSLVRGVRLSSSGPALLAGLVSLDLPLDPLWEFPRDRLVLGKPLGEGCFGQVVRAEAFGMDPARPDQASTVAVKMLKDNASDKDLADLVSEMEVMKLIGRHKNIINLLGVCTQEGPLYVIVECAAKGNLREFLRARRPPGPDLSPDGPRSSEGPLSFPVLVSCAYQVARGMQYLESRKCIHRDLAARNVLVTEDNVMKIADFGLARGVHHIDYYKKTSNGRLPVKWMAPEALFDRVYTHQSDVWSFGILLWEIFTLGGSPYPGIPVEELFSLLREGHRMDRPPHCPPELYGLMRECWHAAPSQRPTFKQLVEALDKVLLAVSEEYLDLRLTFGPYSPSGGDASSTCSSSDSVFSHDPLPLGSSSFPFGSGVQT

| Compound | IC50 [1] [nM] | BAF3-FGFR 3 (MIN IL3) 384 well pIC50 [2] | IC50 [3] [µM] | BAF3-FLT3 (MIN IL3) 384 well pIC50 [4] | melting point [°C] | BAF3-FGFR 3 (PLUS IL3) 384 well pIC50 [3] |
| --- | --- | --- | --- | --- | --- | --- |
| COc1cc(OC)cc(N(CCN2CCOCC2)c2ccc3ncc(-c4ccc(NC(=O)N5CCOCC5)nc4)nc3c2)c1 [Compound 35] | 67.6 | 6.19 | > 10 | <5 | 153 | – |
| COc1cc(OC)cc(N(CCO)c2ccc3ncc(-c4ccc(N5CCN(C)CC5)nc4)nc3c2)c1 [Compound 163] | 120 | ~6.14 | > 10 | 5.32 | 160 | – |
| CO/N=C(\C)c1cnc2ccc(N(CCO)c3cc(OC)cc(OC)c3)cc2n1 [Compound 29] | 234 | 5.5 | > 10 | <5 | 149 | – |
| COc1cc(OC)cc(N(CCN)c2ccc3ncc(-c4ccn(C)c4)nc3c2)c1 [Compound 79] | 8.51 | ~6.64 | > 10 | – | 106 | – |
| COc1cc(OC)cc(N(CCO)c2ccc3ncc(C4CCN(C(=O)OC(C)(C)C)CC4)nc3c2)c1 [Compound 185] | > 1000 | 5.01 | > 10 | <5 | – | – |
| COc1cc(OC)cc(N(CCO)c2ccc3ncc(-c4ccnc(C(=O)NCCCCCO)c4)nc3c2)c1 [Compound 139] | 97.7 | 5.72 | > 10 | <5 | – | – |
| COc1cc(OC)cc(N(CCNC(C)C)c2ccc3ncc(N4CCC(CN)CC4)nc3c2)c1 [Compound 67] | 200 | 5.83 | > 10 | 5 | – | – |
| COc1cc(OC)cc(N(CCNC(C)C)c2ccc3ncc(-c4ccc(N5CCN(C)CC5)nc4)nc3c2)c1 [Compound 170] | 28.8 | 6.16 | 9.77 | 5.47 | – | – |
| COCC(CN(c1cc(OC)cc(OC)c1)c1ccc2ncc(-c3cccnc3)nc2c1)OC(C)=O (single isomer, unassigned) [Compound 76] | 107 | 6.59 | – | <5 | – | <5 |
| COc1cc(OC)cc(N(CCCO)c2ccc3ncc(-c4ccnc(F)c4)nc3c2)c1 [Compound 142] | 64.6 | 5.85 | > 10 | – | 155 | – |
| COc1cc(OC)cc(N(CCNC(C)C)c2ccc3ncc(C(=O)N4CCN(C)CC4)nc3c2)c1 [Compound 179] | > 1000 | 5.19 | > 10 | <5 | – | – |
| COc1cc(OC)cc(N(CCNC(C)C)c2ccc3ncc(C(=O)N4CCOCC4)nc3c2)c1 [Compound 181] | > 1000 | 5.16 | > 10 | <5 | – | – |
| COc1cc(OC)cc(N(CCNC(C)C)c2ccc3ncc(C(=O)NCCCN4CCN(C)CC4)nc3c2)c1 [Compound 159] | 490 | 5.82 | > 10 | <5 | – | – |
| COc1cc(OC)cc(N(CCNC(C)C)c2ccc3ncc(-c4ccnn4C4CCCCO4)nc3c2)c1 (centres unmarked) [Compound 188] | 70.8 | 6.17 | > 10 | – | 122 | – |
| COc1cc(OC)cc(N(CCCO)c2ccc3ncc(-c4ccnc(C(=O)NCCOCCO)c4)nc3c2)c1 [Compound 186] | 126 | 5.8 | > 10 | <5 | – | – |
| COC(=O)C1CCCN1c1cnc2ccc(N(CCO)c3cc(OC)cc(OC)c3)cc2n1 (centres unmarked) [Compound 172] | 417 | 5.36 | > 10 | 5.19 | – | – |
| COc1cc(OC)cc(N(CCCNCC(F)(F)F)c2ccc3ncc(-c4cnc(OC)nc4)nc3c2)c1 [Compound 26] | 479 | <5 | > 10 | – | 96 | – |
| COc1cc(OC)cc(N(CCNC(C)C)c2ccc3ncc(C(=O)N4CCCCC4)nc3c2)c1 [Compound 180] | 977 | 5.28 | > 10 | <5 | – | – |
| COc1cc(OC)cc(N(CCCNCC(F)(F)F)c2ccc3ncc(C(=O)NCCN4CCOCC4)nc3c2)c1 [Compound 158] | > 1000 | <5 | > 10 | <5 | – | – |
| COc1cc(OC)cc(N(CCNC(C)C)c2ccc3ncc(-n4cnc(CO)c4)nc3c2)c1 [Compound 77] | 52.5 | 7.12 | > 10 | <5 | – | – |
